# Data: patent US8883827B2, “Azole derivatives as WTN pathway inhibitors” (Oslo University Hospital HF, priority 2009, dated 2014)
# Several values for one entry are separate records, joined by “and”; a condition that tells them apart may be missing. Equal entries are not always repeated.
# Tests used:
# Rsk1(h) = target: T1, Rsk1(h) (Homo sapiens, UniProt Q15418); experiment: Kinase screen; format: biochemical; conditions: 0.1% DMSO control = 100%
# T1 construct: purchased Millipore (KinaseProfiler Service)
# TAK1(h) = target: T2, TAK1(h) (Homo sapiens, UniProt O43318); experiment: Kinase screen; format: biochemical; conditions: 0.1% DMSO control = 100%
# T2 construct: purchased Millipore (KinaseProfiler Service)
# [1] = tested on: SW480 colon carcinoma cells; experiment: MTS cell proliferation assay, Table 5; format: cell-based; conditions: Homo sapiens; SW480, 10 μM, 72 h; relative to DMSO control; read-out: Cell proliferation (%) for test compounds
# In short: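 SW480 cells treated with 10 μM compound (0.1% DMSO vehicle) in 10% FBS medium, refreshed daily, for 72 h. MTS reduction read at A490 after 2 h substrate incubation; values are t0-corrected growth as percent of DMSO control.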
# Aurora-A(h) = target: T3, Aurora-A(h) (Homo sapiens, UniProt O14965); experiment: Kinase screen; format: biochemical; conditions: 0.1% DMSO control = 100%
# T3 construct: purchased Millipore (KinaseProfiler service)
# Apc^Min mice = experiment: Tumour growth in Apc^Min mice; format: in vivo
# Protocol: Cages containing three C57BL/6 females were crossed with one C57BL/6J-Apc^Min male. The mice were fed with 2018SX Teklad Global 18% Protein Extruded Rodent Diet (Harlan™). 5-7 day old pups were randomized and divided into two treatment groups; the test group was treated with compound (1) and the control group treated with control vehicle (1% Tween®80—Sigma). Test solutions were administered daily by subcutaneous injection into the back of the neck (10 μl solution per gram of animal weight, solution 15 mg/ml compound). Two day injection intermissions followed after every fifth injection day. At the age of 21 days, mice were genotyped and Apc^Min animals were sorted into a males and females. At the same time, subcutaneous injection of the solutions was substituted by oral administration. For oral application, compound (1) was dissolved in DMSO to […]. DMSO alone was used as a vehicle control (5 μl solution per gram of animal weight, solution 30 mg/ml). Administration was terminated at the age of 9 weeks and animals euthanased. The small intestine and colon of each animal was dissected, fixed in 10% PFA and stained with 1% methylene blue. Intestines were divided into anonymous and coded samples before manual analysis by microscopy. The frequency, distribution and size of the tumors were quantified. The mice were weighted twice a week throughout the experiment. All animal experiments were approved by local ethics authorities at Forsøksdyrutvalget, Oslo, Norway, and were carried out following accepted ethical standards. […] For each statistical comparison, a Shapiro-Wilk normality test was performed along with a Students t-test if passed (P>0.05). When normality could not be achieved in the Shapiro-Wilk test, a Mann-Whitney rank sum test was used instead of Students t-test. The α-level was set to 0.05 and a difference with P<0.05 was considered to be statistically significant. Sample size (n), median, range, maximum, minimum, mean, standard deviation, standard error, and confidence intervals (C.I. of mean) are listed.
# Mnk2(h) = target: T4, Mnk2(h) (Homo sapiens, UniProt Q9HBH9); experiment: Kinase screen; format: biochemical; conditions: 0.1% DMSO control = 100%
# T4 construct: purchased Millipore (KinaseProfiler service)
# PKG1α(h) = target: T5, PKG1α(h) (Homo sapiens, UniProt Q13976); experiment: Kinase screen; format: biochemical; conditions: 0.1% DMSO control = 100%
# T5 construct: purchased Millipore (KinaseProfiler service)
# Fyn(h) = target: T6, Fyn(h) (Homo sapiens, UniProt P06241); experiment: Kinase screen; format: biochemical; conditions: 0.1% DMSO control = 100%
# T6 construct: purchased Millipore (KinaseProfiler service)
# [2] = tested on: LiCl-induced activation of canonical Wnt signaling; experiment: LiCl-induced ST-Luc reporter assay in HEK293 cells; format: cell-based; conditions: Homo sapiens; HEK293, 25 mM LiCl, 24 h; read-out: IC50, antagonism of LiCl-induced activation of canonical Wnt signaling
# Protocol: Transfection of HEK293 cells was performed as described in Example 22, but using 0.23 μg NF-κB-Luciferase and 0.02 μg Renilla. […] All treated reporter cells were finally lysed and the firefly luciferase and Renilla activities were measured on a 20/20n Luminometer (Turner BioSystems) as described in the Dual-Glo™ Luciferase Assay System Technical Manual (Promega).
# DLD-1 cells = experiment: Real-time RT-PCR of Wnt target genes; format: cell-based; conditions: 10 (or 25) M as printed, 72 h, relative to GAPDH
# Protocol: (§1) A real-time RT-PCR analysis was employed to confirm specific inhibition of expressed Wnt target genes. […] After 24 hours, solutions containing compound No. 1 were added at 10 or 25 μm final concentrations. Media containing the test compound were changed daily for 3 days. […] Real Time RT-PCR (SYBR Green PCR Mastermix, Stratagene) was performed using the following primers on a Mx3000P® QPCR System real-time thermal cycler (Stratagene): Results were calculated as the ratio of expression of target gene to a control gene (GAPDH).
# SW480 cells = experiment: Real-time RT-PCR of Wnt target genes; format: cell-based; conditions: 10 (or 25) M as printed, 72 h, relative to GAPDH
# Protocol: as §1
# [3] = tested on: Wnt signaling pathway in SW480 cells; experiment: ST-d1EGFP reporter in SW480 cells (flow cytometry); format: cell-based; conditions: 25 µM compound, 72 h
# Protocol: 3) the SW480 colorectal cell line, which has an aberrant Wnt activity caused by spontaneous mutations in the APC locus, transfected with the construct ST-d1EGFP. In this cell line, d1EGFP reporter is activated without using Wnt-3a CM, i.e. the cell line has permanently “switched on” Wnt signaling pathway.
# 100000 ST-d1EGFP SW480 and SW480 CMV-d1EGFP (Clontech) SW480 cells were plated on 12-well plates and 1, 10 or 25 μM of compound No. 1 (or 0.01%, 0.1% or 0.25% DMSO—controls) was added to the cells the following day. After a 72 hour incubation, samples were trypsinized and analysed for d1EGFP expression on a PAS-PPCS flowcytometer and cell sorter (Partec).
# [4] = Test female, s.c. then oral 150 mg/kg, to age 9 weeks
# [5] = Test male, s.c. then oral 150 mg/kg, to age 9 weeks
# T3 sequence (O14965 whole entry): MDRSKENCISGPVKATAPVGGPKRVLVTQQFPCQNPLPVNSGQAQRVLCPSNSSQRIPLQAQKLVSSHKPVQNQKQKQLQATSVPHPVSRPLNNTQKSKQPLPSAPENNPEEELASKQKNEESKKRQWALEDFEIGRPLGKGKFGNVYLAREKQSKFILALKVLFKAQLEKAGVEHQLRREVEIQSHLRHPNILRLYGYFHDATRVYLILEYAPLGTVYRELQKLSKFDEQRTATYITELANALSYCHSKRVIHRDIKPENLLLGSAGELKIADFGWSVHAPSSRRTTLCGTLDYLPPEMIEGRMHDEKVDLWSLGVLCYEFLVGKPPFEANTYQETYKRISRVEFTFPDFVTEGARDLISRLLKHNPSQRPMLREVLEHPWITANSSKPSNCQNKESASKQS
# T6 sequence (P06241 whole entry): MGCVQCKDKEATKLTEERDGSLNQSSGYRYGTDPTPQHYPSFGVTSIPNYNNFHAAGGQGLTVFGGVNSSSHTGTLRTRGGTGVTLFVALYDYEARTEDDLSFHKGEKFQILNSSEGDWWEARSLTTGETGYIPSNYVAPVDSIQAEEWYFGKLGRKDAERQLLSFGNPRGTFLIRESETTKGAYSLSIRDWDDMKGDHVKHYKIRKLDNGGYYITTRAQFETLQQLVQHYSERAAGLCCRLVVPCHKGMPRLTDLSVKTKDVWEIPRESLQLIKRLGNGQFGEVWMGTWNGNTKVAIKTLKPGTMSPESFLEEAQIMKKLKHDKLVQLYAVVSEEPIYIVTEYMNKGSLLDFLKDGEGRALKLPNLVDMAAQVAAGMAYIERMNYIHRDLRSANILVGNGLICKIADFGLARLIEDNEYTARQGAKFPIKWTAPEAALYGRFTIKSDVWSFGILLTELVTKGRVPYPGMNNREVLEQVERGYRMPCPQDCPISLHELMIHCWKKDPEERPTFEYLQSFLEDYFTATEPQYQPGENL
# T4 sequence (Q9HBH9 whole entry): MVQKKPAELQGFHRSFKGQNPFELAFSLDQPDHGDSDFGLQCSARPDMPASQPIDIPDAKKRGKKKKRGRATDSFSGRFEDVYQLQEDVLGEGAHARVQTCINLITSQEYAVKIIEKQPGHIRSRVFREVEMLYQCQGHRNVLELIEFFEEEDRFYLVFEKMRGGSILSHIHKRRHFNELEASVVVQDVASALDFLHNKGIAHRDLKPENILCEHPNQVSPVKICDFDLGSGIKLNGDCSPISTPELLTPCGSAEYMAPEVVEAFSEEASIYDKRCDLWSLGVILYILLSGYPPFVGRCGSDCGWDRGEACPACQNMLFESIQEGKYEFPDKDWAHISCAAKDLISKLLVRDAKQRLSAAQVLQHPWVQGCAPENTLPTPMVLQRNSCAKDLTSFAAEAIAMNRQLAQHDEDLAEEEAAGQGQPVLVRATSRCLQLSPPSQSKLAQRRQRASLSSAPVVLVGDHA
# T2 sequence (O43318 1-303 limits assumed): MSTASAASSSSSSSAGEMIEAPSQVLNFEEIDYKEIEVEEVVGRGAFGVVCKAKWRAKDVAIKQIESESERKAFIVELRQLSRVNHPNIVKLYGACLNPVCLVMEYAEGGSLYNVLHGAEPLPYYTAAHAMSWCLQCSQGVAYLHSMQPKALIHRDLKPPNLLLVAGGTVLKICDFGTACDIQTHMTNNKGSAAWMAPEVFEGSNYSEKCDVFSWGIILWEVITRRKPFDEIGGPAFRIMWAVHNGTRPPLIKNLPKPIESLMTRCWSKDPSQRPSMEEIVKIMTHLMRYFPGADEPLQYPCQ
# T5 sequence (Q13976 whole entry): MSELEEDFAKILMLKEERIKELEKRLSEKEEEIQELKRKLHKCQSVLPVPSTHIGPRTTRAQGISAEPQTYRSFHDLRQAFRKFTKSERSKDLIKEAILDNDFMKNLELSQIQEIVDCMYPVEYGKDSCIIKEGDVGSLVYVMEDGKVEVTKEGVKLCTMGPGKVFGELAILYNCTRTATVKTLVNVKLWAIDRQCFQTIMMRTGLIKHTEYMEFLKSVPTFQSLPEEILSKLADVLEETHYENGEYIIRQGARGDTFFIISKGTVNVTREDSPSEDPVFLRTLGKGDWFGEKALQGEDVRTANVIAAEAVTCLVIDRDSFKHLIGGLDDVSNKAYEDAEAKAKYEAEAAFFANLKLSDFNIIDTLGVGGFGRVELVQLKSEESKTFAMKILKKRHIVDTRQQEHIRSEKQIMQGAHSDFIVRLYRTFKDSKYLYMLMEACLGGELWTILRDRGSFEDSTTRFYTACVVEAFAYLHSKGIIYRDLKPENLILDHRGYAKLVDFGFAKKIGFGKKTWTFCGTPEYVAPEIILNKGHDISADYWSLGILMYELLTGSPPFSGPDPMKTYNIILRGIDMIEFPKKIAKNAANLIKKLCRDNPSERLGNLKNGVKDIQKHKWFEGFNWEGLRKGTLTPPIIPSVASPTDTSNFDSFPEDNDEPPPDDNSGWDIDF
# T1 sequence (Q15418 whole entry): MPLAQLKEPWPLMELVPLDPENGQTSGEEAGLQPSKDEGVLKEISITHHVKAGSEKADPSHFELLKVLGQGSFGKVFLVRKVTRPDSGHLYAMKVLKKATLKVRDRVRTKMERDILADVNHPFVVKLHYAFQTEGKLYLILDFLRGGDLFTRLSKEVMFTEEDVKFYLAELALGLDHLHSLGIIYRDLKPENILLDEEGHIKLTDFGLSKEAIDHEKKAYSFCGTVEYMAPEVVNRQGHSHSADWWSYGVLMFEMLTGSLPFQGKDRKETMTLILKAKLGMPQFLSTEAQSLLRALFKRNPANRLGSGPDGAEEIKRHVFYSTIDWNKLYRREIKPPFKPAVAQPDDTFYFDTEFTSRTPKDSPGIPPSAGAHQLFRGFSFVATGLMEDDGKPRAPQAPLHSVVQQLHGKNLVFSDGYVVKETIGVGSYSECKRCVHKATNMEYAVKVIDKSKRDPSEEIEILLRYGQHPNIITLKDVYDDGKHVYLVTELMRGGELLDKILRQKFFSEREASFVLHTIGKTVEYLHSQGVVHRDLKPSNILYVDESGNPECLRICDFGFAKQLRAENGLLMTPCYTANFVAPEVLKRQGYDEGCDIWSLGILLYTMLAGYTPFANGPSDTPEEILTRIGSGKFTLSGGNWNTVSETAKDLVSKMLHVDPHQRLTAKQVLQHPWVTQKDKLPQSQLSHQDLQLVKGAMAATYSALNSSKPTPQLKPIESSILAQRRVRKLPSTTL
smiles,measurement,setting,value
COc1ccc(-n2c(SCc3nc(-c4ccc(C)cc4)no3)nnc2-c2ccncc2)cc1 [Compound 1],activity at 10 µM,Rsk1(h),108%
same,activity at 10 µM,TAK1(h),104%
same,activity at 10 µM,[1],52%
same,activity at 10 µM,Aurora-A(h),95%
same,"number of colon tumours, Max","Apc^Min mice; Test (male + female), control max 6",2
same,"number of small intestine tumours, Max","Apc^Min mice; Test (male + female), control max 295",53
same,"number of colon tumours, Mean","Apc^Min mice; Test (male + female), control mean 1.783, P=0.003",0.42 and 0.429
same,"number of small intestine tumours, Mean","Apc^Min mice; Test (male + female), control mean 74.8, P=0.036",36.1
same,"number of colon tumours, Median","Apc^Min mice; Test (male + female), control median 1",0
same,"number of small intestine tumours, Median","Apc^Min mice; Test (male + female), control median 45",35
same,"number of colon tumours, Min","Apc^Min mice; Test (male + female), control min 0",0
same,"number of small intestine tumours, Min","Apc^Min mice; Test (male + female), control min 25",19
same,"number of small intestine tumours, Max",Apc^Min mice; [4],51
same,"number of small intestine tumours, Mean",Apc^Min mice; [4],33.5
same,"number of small intestine tumours, Median",Apc^Min mice; [4],33
same,"number of small intestine tumours, Min",Apc^Min mice; [4],19
same,"number of small intestine tumours, Max",Apc^Min mice; [5],53
same,"number of small intestine tumours, Mean",Apc^Min mice; [5],39.1
same,"number of small intestine tumours, Median",Apc^Min mice; [5],37
same,"number of small intestine tumours, Min",Apc^Min mice; [5],22
same,difference in the bodyweight of male or female mice,"Apc^Min mice; after the treatments, versus vehicle group",No substantial difference
same,"tumour frequencies among size classes between 0.10 mm^2 and 3.20 mm^2, small intestine",Apc^Min mice; compared to control,drastically reduced
same,tumours in the last two-thirds of the small intestine,Apc^Min mice; compared to control,substantially fewer tumours
same,total tumor load in the small intestine (sum of all tumors in mm^2/n),Apc^Min mice; control 38.1 mm^2/subject,16.4 mm^2/subject
same,activity at 10 µM,Mnk2(h),108%
same,activity at 10 µM,PKG1α(h),106%
same,activity at 10 µM,Fyn(h),83%
same,IC50,[2],0.42 µM
same,"Axin2, SP5 and NKD1 mRNA levels",DLD-1 cells,dose dependent reduction
same,"Axin2, SP5 and NKD1 mRNA levels",SW480 cells,dose dependent reduction
same,reduction of ratio of activity of ST-d1EGFP to CMV-d1EGFP,[3],63.5%
